Measured values published in ChEMBL document CHEMBL2429854, “Influences of hydrocarbon linkers on the receptor binding affinities of gonadotropin-releasing hormone peptides” (Bioorg Med Chem Lett, 2013).

Experiments:
[1] = target: T1, Gonadotropin-releasing hormone receptor (Homo sapiens) (UniProt P30968); test: Displacement of [111In]-DOTA-Aun-(D-Lys6-GnRH) from human GnRH receptor after 3 hrs by gamma-counting; conditions: concentration not given here
T1 sequence (whole entry): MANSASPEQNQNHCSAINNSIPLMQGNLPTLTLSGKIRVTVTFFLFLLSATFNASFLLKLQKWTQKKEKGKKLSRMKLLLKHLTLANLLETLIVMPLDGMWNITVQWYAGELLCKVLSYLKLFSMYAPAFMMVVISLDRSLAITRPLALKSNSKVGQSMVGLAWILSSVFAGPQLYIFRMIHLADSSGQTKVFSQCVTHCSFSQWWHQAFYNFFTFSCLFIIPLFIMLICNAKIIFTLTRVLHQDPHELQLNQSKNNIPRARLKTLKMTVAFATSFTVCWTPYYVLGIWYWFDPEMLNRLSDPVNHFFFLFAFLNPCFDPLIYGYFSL

[2] = target: T2, Gonadotropin-releasing hormone receptor (Homo sapiens, UniProt P30968); test: Displacement of [125I]-[DTrp6]-LH-RH from human GnRH receptor after 3 hrs by gamma counting
T2 sequence (P30968 whole entry): T1 sequence (whole entry)

Row | inhibition [1] [%] | IC50 [2] [nM] | SMILES
1 | 85 | – | CC(C)C[C@H](NC(=O)[C@@H](CCCCNC(=O)CCCCCCCCCCNC(=O)CN1CCN(CC(=O)O)CCN(CC(=O)O)CCN(CC(=O)O)CC1)NC(=O)[C@H](Cc1ccc(O)cc1)NC(=O)[C@H](CO)NC(=O)[C@H](Cc1c[nH]c2ccccc12)NC(=O)[C@H](Cc1cnc[nH]1)NC(=O)[C@@H]1CCC(=O)N1)C(=O)N[C@@H](CCCNC(=N)N)C(=O)N1CCC[C@H]1C(=O)NCC(N)=O
2 | – | 134 | CC(C)C[C@H](NC(=O)[C@@H](CCCCNC(=O)CCCNC(=O)CN1CCN(CC(=O)O)CCN(CC(=O)O)CCN(CC(=O)O)CC1)NC(=O)[C@H](Cc1ccc(O)cc1)NC(=O)[C@H](CO)NC(=O)[C@H](Cc1c[nH]c2ccccc12)NC(=O)[C@H](Cc1cnc[nH]1)NC(=O)[C@@H]1CCC(=O)N1)C(=O)N[C@@H](CCCN=C(N)N)C(=O)N1CCC[C@H]1C(=O)NCC(N)=O
